# Measured values: ChEMBL document CHEMBL2203184, “Synthesis of novel triplet drugs with 1,3,5-trioxazatriquinane skeletons and their pharmacologies. 3: synthesis of novel triplet drugs with the bis(epoxymethano) or bis(dimethylepoxymethano) structure (double-capped triplet)” (Bioorg Med Chem Lett, 2012)
# Experiments:
# [1] = Selectivity ratio of Ki for mu opioid receptor in mouse whole brain without cerebellum to Ki for kappa opioid receptor in guinea pig cerebellum
# [2] = Selectivity ratio of Ki for delta opioid receptor in mouse whole brain without cerebellum to Ki for kappa opioid receptor in guinea pig cerebellum
# Mus musculus = species: Mus musculus; experiment: Selectivity ratio of Ki for delta opioid receptor in mouse whole brain without cerebellum to Ki for mu opioid receptor in mouse whole brain without cerebellum
# [3] = molecular target: Kappa-type opioid receptor (Cavia porcellus, UniProt P41144); experiment: Displacement of [3H]U-69,593 from kappa opioid receptor in guinea pig cerebellum
# [4] = Selectivity ratio of Ki for kappa opioid receptor in guinea pig cerebellum to Ki for mu opioid receptor in mouse whole brain without cerebellum
# [5] = molecular target: Delta-type opioid receptor (Mus musculus, UniProt P32300); experiment: Displacement of [3H]DPDPE from delta opioid receptor in mouse whole brain without cerebellum
# Mu-type opioid receptor [6] = molecular target: Mu-type opioid receptor (Mus musculus, UniProt P42866); experiment: Displacement of [3H]DAMGO from mu opioid receptor in mouse whole brain without cerebellum
# Mu-type opioid receptor [7] = molecular target: T1, Mu-type opioid receptor (Homo sapiens, UniProt P35372); experiment: Agonist activity at human mu opioid receptor expressed in CHO cells assessed as [35S]GTPgammaS binding after 2 hrs by liquid scintillation counting relative to DAMGO; format: functional, cell-based
# Mu-type opioid receptor [8] = molecular target: T1, Mu-type opioid receptor; experiment: Agonist activity at human mu opioid receptor expressed in CHO cells assessed as [35S]GTPgammaS binding after 2 hrs by liquid scintillation counting; format: functional, cell-based
# [9] = molecular target: T2, Kappa-type opioid receptor (Homo sapiens, UniProt P41145); experiment: Agonist activity at human kappa opioid receptor expressed in CHO cells assessed as [35S]GTPgammaS binding after 2 hrs by liquid scintillation counting; format: functional, cell-based
# [10] = molecular target: T2, Kappa-type opioid receptor; experiment: Agonist activity at human kappa opioid receptor expressed in CHO cells assessed as [35S]GTPgammaS binding after 2 hrs by liquid scintillation counting relative to U-69,593; format: functional, cell-based
# Chain of Delta-type opioid receptor (P32300 whole entry): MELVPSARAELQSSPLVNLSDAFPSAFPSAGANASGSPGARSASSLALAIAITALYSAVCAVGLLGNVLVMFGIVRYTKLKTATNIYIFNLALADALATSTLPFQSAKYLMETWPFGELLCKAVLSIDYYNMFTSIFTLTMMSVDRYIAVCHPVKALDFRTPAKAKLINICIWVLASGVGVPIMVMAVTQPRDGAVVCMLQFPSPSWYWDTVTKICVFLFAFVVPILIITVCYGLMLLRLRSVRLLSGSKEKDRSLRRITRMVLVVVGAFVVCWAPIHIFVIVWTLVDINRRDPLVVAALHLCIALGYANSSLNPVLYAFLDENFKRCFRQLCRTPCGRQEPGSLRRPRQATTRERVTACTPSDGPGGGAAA
# Chain of Mu-type opioid receptor (Mus musculus, UniProt P42866) (P42866 whole entry): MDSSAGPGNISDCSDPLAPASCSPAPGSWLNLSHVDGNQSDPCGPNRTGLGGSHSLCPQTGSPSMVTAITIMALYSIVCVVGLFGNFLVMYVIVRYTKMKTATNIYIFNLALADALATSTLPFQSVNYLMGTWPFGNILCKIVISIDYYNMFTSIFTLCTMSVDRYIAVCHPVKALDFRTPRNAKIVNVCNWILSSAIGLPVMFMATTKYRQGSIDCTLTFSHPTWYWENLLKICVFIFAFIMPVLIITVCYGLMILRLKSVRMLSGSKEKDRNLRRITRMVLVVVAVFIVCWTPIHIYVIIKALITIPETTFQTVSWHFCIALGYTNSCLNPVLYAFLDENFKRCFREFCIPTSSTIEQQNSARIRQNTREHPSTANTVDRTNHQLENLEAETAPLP
# Chain of Kappa-type opioid receptor (Cavia porcellus, UniProt P41144) (P41144 whole entry): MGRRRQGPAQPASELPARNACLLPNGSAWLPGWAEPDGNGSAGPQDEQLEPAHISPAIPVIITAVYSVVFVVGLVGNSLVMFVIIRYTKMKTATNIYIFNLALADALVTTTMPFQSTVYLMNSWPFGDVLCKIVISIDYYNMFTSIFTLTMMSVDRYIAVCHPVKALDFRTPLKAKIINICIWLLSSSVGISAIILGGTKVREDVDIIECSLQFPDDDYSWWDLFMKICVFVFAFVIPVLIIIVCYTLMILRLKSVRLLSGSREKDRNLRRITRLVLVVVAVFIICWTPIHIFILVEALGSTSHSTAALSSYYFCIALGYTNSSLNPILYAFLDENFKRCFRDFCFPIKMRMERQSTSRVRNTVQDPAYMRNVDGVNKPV
# T1 sequence (P35372 whole entry): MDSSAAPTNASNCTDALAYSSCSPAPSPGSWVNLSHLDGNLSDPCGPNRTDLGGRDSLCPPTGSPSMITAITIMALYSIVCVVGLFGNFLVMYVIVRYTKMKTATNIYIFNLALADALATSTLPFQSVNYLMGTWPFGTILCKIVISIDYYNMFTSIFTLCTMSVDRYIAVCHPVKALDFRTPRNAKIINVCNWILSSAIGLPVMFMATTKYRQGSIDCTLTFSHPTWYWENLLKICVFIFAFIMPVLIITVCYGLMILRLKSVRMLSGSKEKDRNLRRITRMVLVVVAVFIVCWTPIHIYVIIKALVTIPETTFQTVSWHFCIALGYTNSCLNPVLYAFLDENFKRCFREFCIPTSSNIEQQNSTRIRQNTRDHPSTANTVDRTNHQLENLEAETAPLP
# T2 sequence (P41145 whole entry): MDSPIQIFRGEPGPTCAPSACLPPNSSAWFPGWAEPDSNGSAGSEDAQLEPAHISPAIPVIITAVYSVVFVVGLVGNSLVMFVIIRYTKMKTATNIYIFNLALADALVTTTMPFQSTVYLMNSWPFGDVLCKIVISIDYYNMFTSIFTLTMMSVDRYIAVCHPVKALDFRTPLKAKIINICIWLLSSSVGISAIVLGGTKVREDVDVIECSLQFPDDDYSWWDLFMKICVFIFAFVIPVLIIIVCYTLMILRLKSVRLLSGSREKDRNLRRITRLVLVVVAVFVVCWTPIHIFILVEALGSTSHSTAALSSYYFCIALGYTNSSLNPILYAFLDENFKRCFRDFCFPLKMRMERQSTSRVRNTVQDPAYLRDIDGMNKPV
SMILES,Ratio Ki [1],Ratio Ki [2],Ratio Ki (Mus musculus),Ki [3],Ratio Ki [4],Ki [5],Ki (Mu-type opioid receptor [6]),Emax (Mu-type opioid receptor [7]),EC50 (Mu-type opioid receptor [8]),EC50 [9],Emax [10]
CN1CC[C@]23c4c5ccc(O)c4O[C@H]2[C@]2(CC[C@@]3(O)[C@H]1C5)O[C@@H]1CO[C@@H]3CO[C@H]2N31,0.0214,1.57,73.1,109 nM,46.6,171 nM,2.34 nM,,,,
Oc1ccc2c3c1O[C@H]1[C@]4(CC[C@@]5(O)[C@@H](C2)N(Cc2ccccc2)CC[C@]315)O[C@@H]1CO[C@@H]2CO[C@H]4N21,,,,> 1000 nM,,> 1000 nM,> 1000 nM,,,,
Oc1ccc2c3c1O[C@H]1[C@]4(CC[C@@]5(O)[C@@H](C2)N(Cc2ccccc2)CC[C@]315)O[C@H]1CO[C@H]2CO[C@@H]4N21,< 0.581,< 0.084,0.145,> 1000 nM,> 1.72,84 nM,581 nM,,,,
CN1CC[C@]23c4c5ccc(O)c4O[C@H]2[C@]2(CC[C@@]3(O)[C@H]1C5)O[C@H]1CO[C@H]3CO[C@@H]2N31,< 0.0024,< 0.133,55.9,> 1000 nM,> 420,133 nM,2.38 nM,,,,
CC(C)CN1CC[C@]23c4c5ccc(O)c4O[C@H]2[C@]2(CC[C@@]3(O)[C@H]1C5)O[C@H]1N3[C@H](OC1(C)C)C(C)(C)O[C@@H]32,< 0.088,,> 11.4,> 1000 nM,> 11.4,> 1000 nM,88.1 nM,,,,
CC(C)CN1CC[C@]23c4c5ccc(O)c4O[C@H]2[C@]2(CC[C@@]3(O)[C@H]1C5)O[C@@H]1N3[C@@H](OC1(C)C)C(C)(C)O[C@H]32,< 0.134,< 0.541,4.04,> 1000 nM,> 7.46,541 nM,134 nM,,,,
CC1(C)O[C@H]2N3[C@@H]1O[C@]1(CC[C@@]4(O)[C@H]5Cc6ccc(O)c7c6[C@@]4(CCN5CC4CC4)[C@H]1O7)[C@H]3OC2(C)C,0.271,9.1,33.6,7.89 nM,3.69,71.8 nM,2.14 nM,,,,
CN1CC[C@]23c4c5ccc(O)c4O[C@H]2[C@]2(CC[C@@]3(O)[C@H]1C5)O[C@H]1N3[C@H](OC1(C)C)C(C)(C)O[C@@H]32,< 0.0019,< 0.079,42.8,> 1000 nM,> 541,79.1 nM,1.85 nM,79.1%,6 nM,,
CC1(C)O[C@H]2N3[C@@H]1O[C@]1(CC[C@@]4(O)[C@H]5Cc6ccc(O)c7c6[C@@]4(CCN5Cc4ccccc4)[C@H]1O7)[C@H]3OC2(C)C,< 0.45,,> 2.22,> 1000 nM,> 2.22,> 1000 nM,450 nM,,,,
CC(C)CN1CC[C@]23c4c5ccc(O)c4O[C@H]2[C@]2(CC[C@@]3(O)[C@H]1C5)O[C@H]1CO[C@H]3CO[C@@H]2N31,< 0.086,< 0.848,9.89,> 1000 nM,> 11.7,848 nM,85.7 nM,,,,
CC(C)CN1CC[C@]23c4c5ccc(O)c4O[C@H]2[C@]2(CC[C@@]3(O)[C@H]1C5)O[C@@H]1CO[C@@H]3CO[C@H]2N31,< 0.099,< 0.079,0.798,> 1000 nM,> 10.1,79.1 nM,99.1 nM,,,,
Oc1ccc2c3c1O[C@H]1[C@]4(CC[C@@]5(O)[C@@H](C2)N(CC2CC2)CC[C@]315)O[C@@H]1CO[C@@H]2CO[C@H]4N21,2.24,25.9,11.5,3.86 nM,0.446,99.8 nM,8.65 nM,,,25 nM,70%
Oc1ccc2c3c1O[C@H]1[C@]4(CC[C@@]5(O)[C@@H](C2)N(CC2CC2)CC[C@]315)O[C@H]1CO[C@H]2CO[C@@H]4N21,1.15,13.2,11.5,5.95 nM,0.869,78.6 nM,6.85 nM,,,,
CC1(C)O[C@@H]2N3[C@H]1O[C@]1(CC[C@@]4(O)[C@H]5Cc6ccc(O)c7c6[C@@]4(CCN5Cc4ccccc4)[C@H]1O7)[C@@H]3OC2(C)C,,,,> 1000 nM,,> 1000 nM,> 1000 nM,,,,
CC1(C)O[C@@H]2N3[C@H]1O[C@]1(CC[C@@]4(O)[C@H]5Cc6ccc(O)c7c6[C@@]4(CCN5CC4CC4)[C@H]1O7)[C@@H]3OC2(C)C,0.221,0.909,4.11,24.2 nM,4.52,22 nM,5.35 nM,,,,
CN1CC[C@]23c4c5ccc(O)c4O[C@H]2[C@]2(CC[C@@]3(O)[C@H]1C5)O[C@@H]1N3[C@@H](OC1(C)C)C(C)(C)O[C@H]32,< 0.0027,< 0.0098,3.66,> 1000 nM,> 375,9.78 nM,2.67 nM,,,,
